Results published in patent publication US10709750B2, “Female menopause alleviation use of composition containing composite extract of red clover and pomegranate as active ingredient” (HLSCIENCE CO., LTD, priority 2014, dated 2020).
Marks after values point to notes of the source that are not given here.

How the values were obtained:
Type in all cases: in vivo
Conditions in all cases: 120 mg/kg po; estradiol 0.03 μg/head sc
[1] = system: OVX ddY mice; assay: Body weight and food consumption in OVX ddY mice, once daily for 84 days
Method: That is, the experiment was performed after dividing into sterile distilled water 10 ml/kg administered vehicle control after sham surgery (hereinafter sham control), sterile distilled water 10 ml/kg administered vehicle control after OVX surgery (hereinafter OVX control), pomegranate extract single formula 120 mg/kg administered group (PCP) after OVX, and 9 types of red clover:pomegranate extract mixed formula (g/g) administered groups after OVX surgery including red clover:pomegranate extract 1:1 (g/g) mixed formula 120 mg/kg administered group after OVX surgery (1-1), red clover:pomegranate extract 1:2 (g/g) mixed formula 120 mg/kg administered group after OVX surgery (1-2), red clover:pomegranate extract 1:4 (g/g) mixed formula 120 mg/kg administered group after OVX surgery (1-4), red clover:pomegranate extract 1:6 (g/g) mixed formula 120 mg/kg administered group after OVX surgery (1-6), red clover:pomegranate extract 1:8 (g/g) mixed formula 120 mg/kg administered group after OVX surgery (1-8), red clover:pomegranate extract 2:1 (g/g) mixed formula 120 mg/kg administered group after OVX surgery (2-1), red clover:pomegranate extract 4:1 (g/g) mixed formula 120 mg/kg administered group after OVX surgery (4-1), red clover:pomegranate extract 6:1 (g/g) mixed formula 120 mg/kg administered group after OVX surgery (6-1), and red clover:pomegranate extract 8:1 (g/g) mixed formula 120 mg/kg administered group after OVX surgery (8-1).
(§1) Optimal amounts of red clover extract or pomegranate extract were suspended or dissolved in sterile distilled water, and orally administered at a dose of 10 ml/kg once daily for 84 days from 28 days after OVX. That is, red clover extract and pomegranate extract single formula, and red clover:pomegranate extract 1:1, 1:2, 1:4, 1:6, 1:8, 2:1, 4:1, 6:1 and 8:1 (g/g) mixture 120 mg/kg were each orally administered for 84 days, and sham control and OVX control were orally administered with only sterile distilled water as a vehicle at the same dose for the same period instead of the test material, and according to earlier researchers' method [Chiba et al., 2003; Murakami et al., 2007; Tousen et al., 2011], 0.03 ug of 17β-estradiol (Sigma-Aldrich, St. Louise, Mo., USA) was dissolved in 0.2 ml of sterile saline, and subcutaneously administered to back skin at a dose of 0.2 ml/mouse (0.03 μg/head/day) once daily for 84 days from 28 days after OVX surgery (Table 15, FIG. 18). The administration dose of mixed formula was set higher 12 times than a human clinical dose of 600 mg, i.e., 600 mg/60 kg)×12=120 mg/kg, in consideration of a body surface area of mouse, and the dose of each of red clover extract and pomegranate extract single formula was also set as 120 mg/kg for direct comparative evaluation of efficacy.
That is, all experimental animals except sham control were randomly selected and underwent bilateral ovariectomy to induce estrogen deficient menopausal disorder. On the other hand, in sham operated group, both ovaries were detected by the same method but incisions were not made, and abdominal cavities were closed again. At 27 days after surgery, based on body weights (OVX mice: 30.71±1.65 g, 28.0-35.1 g; sham operated mice: 26.99±1.46 g, 24.4-28.7 g), 8 mice per group were selected from all experimental animals including sham operated group, and used for experiments.
More specifically, the anti-obesity and estrogen-like effects were tested as follows. The body weights on OVX surgery date, 1 day before administration (27 days after OVX), the start date of administration, and from the first day after start of administration up to the time of final sacrifice at least once a week were each recorded, and change amounts of body weights, i.e., body weight gains, for the recovery period after OVX (menopausal disorder induction period) and 12 weeks after start of administration were measured. […]

[2] = system: OVX ddY mice; assay: Abdominal fat pad, uterus and liver weights in OVX ddY mice
Method: as §1
(§2) More specifically, the anti-obesity and estrogen-like effects were tested as follows. The body weights on OVX surgery date, 1 day before administration (27 days after OVX), the start date of administration, and from the first day after start of administration up to the time of final sacrifice at least once a week were each recorded, and change amounts of body weights, i.e., body weight gains, for the recovery period after OVX (menopausal disorder induction period) and 12 weeks after start of administration were measured. Food consumption (1, 3, 7, 28, 56 and 83 days after start of administration), serum estradiol levels, amounts of body fat and abdominal fat, weights of abdominal fat pad and uterus, histological changes of uterus and abdominal fat pads (changes in abdominal fat pad thickness and mean adipocyte diameter, thickness of uterus total, epithelium and mucosa, and percentage of uterine glands in the mucosa (FIG. 19) were observed.
(§3) Furthermore, to ascertain the protective effect against fatty liver, testing was conducted as follows. Liver weight, serum AST and ALT levels, and histological changes of liver (changes in mean hepatocyte diameter and region with hepatic degeneration showing fatty change) were observed.

[3] = system: OVX ddY mice; assay: Femur weights in OVX ddY mice
Method: as §1
(§4) The osteoporosis reduction effect was ascertained through histological changes in wet, dry and ash weights of femurs, BMD (FIG. 20), bone strength (FIG. 21), serum osteocalcin and bALP levels, bone mass and structure (trabecular bone mass, trabecular bone number, thickness and length, and cortical bone thickness), and bone resorption (osteoclast cell number and osteoclast cell surface (OS/BS)).

[4] = system: OVX ddY mice; assay: Serum biochemistry in OVX ddY mice
Method: as §1, §2, §3
The hyperlipidemia inhibitory effect was ascertained through changes in serum TC, LDL, HDL and TG levels.
as §4

[5] = system: OVX ddY mice; assay: Bone mineral density and fat density (DEXA) in OVX ddY mice
Method: as §1, §2, §4

[6] = system: OVX ddY mice; assay: Femur bone strength (failure load) in OVX ddY mice
Method: Bone strength is measured through failure load (FL).
as §1, with “efficacy. […]” for “efficacy.”

[7] = system: OVX ddY mice; assay: Histology of abdominal fat pad, uterus and liver in OVX ddY mice
Method: as §1, §2, §3

[8] = system: OVX ddY mice; assay: Femur histomorphometry in OVX ddY mice
Method: as §1, §4

## C[C@]12CC[C@@H]3c4ccc(O)cc4CC[C@H]3[C@@H]1CC[C@@H]2O [Estradiol, 17β-estradiol]
[1]
  Body weight at sacrifice: 35.68 ± 2.19^ab g
  Body weight gain, treatment [D-C]: 6.96 ± 1.21^fg
  Change in body weight gain for duration of administration vs OVX control: −52.56%
  Change in food consumption vs OVX control, day 1: 0.87%
  Change in food consumption vs OVX control, day 3: −5.24%
  Change in food consumption vs OVX control, day 7: −13.04%
  Change in food consumption vs OVX control, day 28: −16.34%
  Change in food consumption vs OVX control, day 56: −20.01%
  Change in food consumption vs OVX control, day 83: −27.82%
  Food consumption, day 1: 11.49 ± 1.41^a g/24 hrs/rat
  Food consumption, day 3: 10.53 ± 0.93^a g/24 hrs/rat
  Food consumption, day 7: 9.82 ± 0.93^ac g/24 hrs/rat
  Food consumption, day 28: 9.52 ± 1.01^ab g/24 hrs/rat
  Food consumption, day 56: 10.24 ± 0.98^ab g/24 hrs/rat
  Food consumption, day 83: 10.65 ± 1.54^de g/24 hrs/rat
[2]
  Abdominal fat pad absolute wet-weight: 0.600 ± 0.536^bc g
  Abdominal fat pad relative wet-weight: 1.656 ± 1.432^bc % of body weight
  Change in abdominal fat pad absolute weight vs OVX control: −82.20%
  Change in abdominal fat pad relative weight vs OVX control: −78.86%
  Change in absolute liver weight vs OVX control: 5.37%
  Change in relative liver weight vs OVX control: 27.16%
  Change in uterus absolute weight vs OVX control: 288.64%
  Change in uterus relative weight vs OVX control: 372.56%
  Liver absolute wet-weight: 1.324 ± 0.073 g
  Liver relative wet-weight: 3.724 ± 0.307^c % of body weight
  Uterus absolute wet-weight: 0.107 ± 0.040^ac g
  Uterus relative wet-weight: 0.303 ± 0.124^ac % of body weight
[3]
  Change in femur absolute ash weight vs OVX control: 30.35%
  Change in femur absolute dry weight vs OVX control: 14.93%
  Change in femur absolute wet weight vs OVX control: 5.79%
  Change in femur relative ash weight vs OVX control: 57.03%
  Change in femur relative dry weight vs OVX control: 38.22%
  Change in femur relative wet weight vs OVX control: 27.75%
  Femur absolute ash weight: 0.033 ± 0.002^ac g
  Femur absolute dry weight: 0.058 ± 0.004^gi
  Femur absolute wet weight: 0.094 ± 0.007 g
  Femur relative ash weight: 0.092 ± 0.007^ac % of body weight
  Femur relative dry weight: 0.162 ± 0.016^gi % of body weight
  Femur relative wet weight: 0.264 ± 0.032^ac % of body weight
[4]
  Change in serum AST level vs OVX control (first series): −33.98%
  Change in serum AST level vs OVX control (second series): −31.58%
  Change in serum HDL level vs OVX control: 52.09%
  Change in serum LDL level vs OVX control: −26.87%
  Change in serum TC level vs OVX control: −25.94%
  Change in serum TG level vs OVX control: −34.80%
  Change in serum bALP level vs OVX control: 39.72%
  Change in serum estradiol level vs OVX control: 185.69%
  Change in serum osteocalcin level vs OVX control: −31.95%
  Serum ALT: 52.00 ± 10.03^ac U/L
  Serum AST: 107.13 ± 12.43^ac U/L
  Serum HDL: 72.63 ± 11.04^ac mg/dl
  Serum LDL: 133.00 ± 10.54^ac mg/dl
  Serum TC: 132.75 ± 21.06^ac mg/dl
  Serum TG: 97.88 ± 18.16^ac mg/dl
[5]
  Bone mineral density, right femur: 0.0259 ± 0.0008^bc g/cm^2
  Bone mineral density, total body: 0.0237 ± 0.0004^ac g/cm^2
  Change in amount of abdominal fat vs OVX control: −35.00%
  Change in amount of body fat vs OVX control: −33.02%
  Change in mean total body bone mineral density vs OVX control: 9.86%
  Change in total femur bone mineral density vs OVX control: 10.78%
  Fat density, abdominal cavity: 26.75 ± 4.22^ac % of body mass
  Fat density, total body: 23.42 ± 4.24^ac % of body mass
[6]
  Change in bone strength of femur mid-shaft region vs OVX control: 61.41%
[7]
  Change in abdominal fat pad thickness vs OVX control: −52.23%
  Change in mean adipocyte diameter vs OVX control: −48.06%
  Change in mean hepatocyte diameter vs OVX control: −42.21%
  Change in percentage of uterine glands in the uterine mucosa vs OVX control: 180.37%
  Change in region with hepatic fatty degeneration vs OVX control: −44.73%
  Change in uterine epithelium mean thickness vs OVX control: 170.17%
  Change in uterine mucosa mean thickness vs OVX control: 196.04%
  Change in uterus total mean thickness vs OVX control: 181.27%
  Hepatic steatosis regions: 43.43 ± 6.53^ac %
  Left uterine horn epithelium thickness: 20.75 ± 4.52^ac μm
  Left uterine horn mucosa layer thickness: 598.74 ± 153.51^ac μm
  Left uterine horn total thickness: 1593.32 ± 371.85^bc μm
  Mean adipocyte diameters: 67.49 ± 14.77^ac μm
  Mean hepatocyte diameters: 18.45 ± 3.66^ac μm
  Uterine gland regions: 34.93 ± 4.60^ac %
[8]
  Change in femur OS/BS vs OVX control: −37.50%
  Change in femur cortical bone thickness vs OVX control: 21.85%
  Change in femur mean trabecular bone number vs OVX control: 92.68%
  Change in femur osteoclast cell number vs OVX control: −55.15%
  Change in femur trabecular bone mass vs OVX control: 73.01%
  Change in mean length of femur trabecular bone vs OVX control: 89.04%
  Change in mean thickness of femur trabecular bone vs OVX control: 70.56%
  Left femur Cbt: 184.17 ± 8.40^eg
  Left femur OS/BS: 13.12 ± 1.41^eg
  Left femur Ocn: 7.63 ± 1.06^ab
  Left femur TV/BV: 29.89 ± 5.24^ab
  Left femur Tbl: 905.51 ± 146.34^g
  Left femur Tbn: 9.88 ± 1.36^eg
  Left femur Tbt: 55.34 ± 8.99^eg
